molecular target: T1, glutathione S-transferase (GST)-linked full-length human Syk protein (Homo sapiens, UniProt P43405); experiment: Syk enzyme assay; assay type: biochemical; settings: 0.83 nM Syk, time-resolved fluorescence; read-out: IC50 of Syk-inhibitory activity
T1 construct: glutathione S-transferase (GST)-linked full-length human Syk protein; purchased Carna Biosciences; host or cells: Baculovirus expression system
How it was run: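 Phosphotyrosine on a biotin-peptide substrate (0.5 μM) was read by time-resolved fluorescence at 615 and 665 nm with Eu-anti-pTyr antibody and APC-streptavidin after 1 h EDTA stop.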

| Structure (SMILES) | IC50 [nM] |
| --- | --- |
| CCn1ncc2c(Nc3nc(N[C@H](C(C)C)[C@H](C)N)c(F)cc3C(N)=O)cccc21 [Example 2-97, 6-(((2S,3R)-2-amino-4-methylpentan-3-yl)amino)-2-((1-ethyl-1H-indazol-4-yl)amino)-5-fluoronicotinamide] | 50 to 100 |
| CN(C)c1nn(C)c2ncc(Nc3nc(N[C@@H]4CCCC[C@@H]4N)c(F)cc3C(N)=O)cc12 [Example 2-286, 6-(((1R,2S)-2-aminocyclohexyl)amino)-2-((3-(dimethylamino)-1-methyl-1H-pyrazolo[3,4-b]pyridin-5-yl)amino)-5-fluoronicotinamide] | 10 to 50 |
| CCn1ncc2cc(Nc3nc(N[C@H](Cc4ccccc4)[C@H](C)N)c(F)cc3C(N)=O)ccc21 [Example 2-423, 6-(((2R,3S)-3-amino-1-phenylbutan-2-yl)amino)-2-((1-ethyl-1H-indazol-5-yl)amino)-5-fluoronicotinamide] | < 10 |
| CC(C)C[C@@H](Nc1nc(Nc2ccc3nn(C)c(N(C)C)c3c2)c(C(N)=O)cc1F)[C@H](C)N [Example 2-15, 6-(((2S,3R)-2-amino-5-methylhexan-3-yl)amino)-2-((3-(dimethylamino)-2-methyl-2H-indazol-5-yl)amino)-5-fluoronicotinamide] | < 10 |
| COc1ncc(Nc2nc(N[C@H](C3CC3)[C@H](C)N)c(F)cc2C(N)=O)c2cnn(C)c12 [Example 2-408, 6-(((1R,2S)-2-amino-1-cyclopropylpropyl)amino)-5-fluoro-2-((7-methoxy-1-methyl-1H-pyrazolo[3,4-c]pyridin-4-yl)amino)nicotinamide] | 50 to 100 |
| COc1cc(Nc2nc(N[C@H](C(C)C)[C@H](C)N)c(F)cc2C(N)=O)ccn1 [Example 2-107, 6-(((2S,3R)-2-amino-4-methylpentan-3-yl)amino)-5-fluoro-2-((2-methoxypyridin-4-yl)amino)nicotinamide] | 50 to 100 |
| COc1nn(C)c2ncc(Nc3nc(N[C@@H](CN)CC(C)C)c(F)cc3C(N)=O)cc12 [Example 2-250, (R)-6-((1-amino-4-methylpentan-2-yl)amino)-5-fluoro-2-((3-methoxy-1-methyl-1H-pyrazolo[3,4-b]pyridin-5-yl)amino)nicotinamide] | < 10 |
| CCC[C@@H](Nc1nc(Nc2cnc(OCC)c(-n3cccn3)c2)c(C(N)=O)cc1F)[C@H](C)N [Example 2-201, 6-(((2S,3R)-2-aminohexan-3-yl)amino)-2-((6-ethoxy-5-(1H-pyrazol-1-yl)pyridin-3-yl)amino)-5-fluoronicotinamide] | 10 to 50 |
| CCn1ncc2cc(Nc3nc(N[C@H](C4CCCCC4)[C@H](C)N)c(F)cc3C(N)=O)ccc21 [Example 2-264, 6-(((1R,2S)-2-amino-1-cyclohexylpropyl)amino)-2-((1-ethyl-1H-indazol-5-yl)amino)-5-fluoronicotinamide] | 10 to 50 |
| CCOc1ncc(Nc2nc(N[C@H](CC)[C@H](C)N)c(F)cc2C(N)=O)cc1-n1ccnn1 [Example 2-206, 6-(((2S,3R)-2-aminopentan-3-yl)amino)-2-((6-ethoxy-5-(1H-1,2,3-triazol-1-yl)pyridin-3-yl)amino)-5-fluoronicotinamide] | 10 to 50 |
| Cc1nn(-c2cncc(Nc3nc(N[C@H]4CCCC[C@H]4N)c(F)cc3C(N)=O)c2)nc1C (stereo in doubt) [Example 2-533, 6-(((1S,2R)-2-aminocyclohexyl)amino)-2-((5-(4,5-dimethyl-2H-1,2,3-triazol-2-yl)pyridin-3-yl)amino)-5-fluoronicotinamide] | 50 to 100 |
| CC[C@H](N)[C@H](Nc1nc(Nc2cccnc2)c(C(N)=O)cc1F)C1CC1 [Example 2-485, 6-(((1R,2S)-2-amino-1-cyclopropylbutyl)amino)-5-fluoro-2-(pyridin-3-ylamino)nicotinamide] | 10 to 50 |
| COCCn1ncc2cc(Nc3nc(N[C@H](c4cc(F)cc(F)c4)[C@H](C)N)c(F)cc3C(N)=O)ccc21 [Example 2-550, 6-(((1R,2S)-2-amino-1-(3,5-difluorophenyl)propyl)amino)-5-fluoro-2-((1-(2-methoxyethyl)-1H-indazol-5-yl)amino)nicotinamide] | < 10 |
| COCCn1nc(N(C)C)c2cc(Nc3nc(N[C@H](CC(C)C)[C@H](C)N)c(F)cc3C(N)=O)ccc21 [Example 2-505, 6-(((2S,3R)-2-amino-5-methylhexan-3-yl)amino)-2-((3-(dimethylamino)-1-(2-methoxyethyl)-1H-indazol-5-yl)amino)-5-fluoronicotinamide] | 10 to 50 |

Further lines, results first:

| IC50 [nM] | Structure (SMILES) |
| --- | --- |
| < 10 | COc1nn(C)c2c(F)cc(Nc3nc(N[C@H](CC4CC4)[C@H](C)N)c(F)cc3C(N)=O)cc12 [Example 2-157, 6-(((2R,3S)-3-amino-1-cyclopropylbutan-2-yl)amino)-5-fluoro-2-((7-fluoro-3-methoxy-1-methyl-1H-indazol-5-yl)amino)nicotinamide] |
| 10 to 50 | COCCn1nc(N(C)C)c2cc(Nc3nc(N[C@H](C4CC4)[C@H](C)N)c(F)cc3C(N)=O)ccc21 [Example 2-504] |
| < 10 | CC[C@H](N)[C@H](Nc1nc(Nc2cc(F)c3c(c2)c(N(C)C)nn3C)c(C(N)=O)cc1F)C1CC1 [Example 2-383, 6-(((1R,2S)-2-amino-1-cyclopropylbutyl)amino)-2-((3-(dimethylamino)-7-fluoro-1-methyl-1H-indazol-5-yl)amino)-5-fluoronicotinamide] |
| < 10 | Cc1ncc(Nc2nc(N[C@H](c3cccc(F)c3)[C@H](C)N)c(F)cc2C(N)=O)cc1F [Example 2-453, 6-(((1R,2S)-2-amino-1-(3-fluorophenyl)propyl)amino)-5-fluoro-2-((5-fluoro-6-methylpyridin-3-yl)amino)nicotinamide] |
| 50 to 100 | CC[C@H](N)[C@@H](C)Nc1nc(Nc2ccc3c(c2)c(N(C)C)nn3CCOC)c(C(N)=O)cc1F [Example 2-507, 6-(((2R,3S)-3-aminopentan-2-yl)amino)-2-((3-(dimethylamino)-1-(2-methoxyethyl)-1H-indazol-5-yl)amino)-5-fluoronicotinamide] |
| 10 to 50 | Cc1nn(CC(F)F)c2ccc(Nc3nc(N[C@H](C)[C@@H](N)C4CC4)c(F)cc3C(N)=O)cc12 [Example 2-300, 6-(((1S,2R)-1-amino-1-cyclopropylpropan-2-yl)amino)-2-((1-(2,2-difluoroethyl)-3-methyl-1H-indazol-5-yl)amino)-5-fluoronicotinamide] |
| < 10 | CC[C@H](N)[C@@H](C)Nc1nc(Nc2ccc3c(c2)c(OC(F)F)nn3C)c(C(N)=O)cc1F [Example 2-351, 6-(((2R,3S)-3-aminopentan-2-yl)amino)-2-((3-(difluoromethoxy)-1-methyl-1H-indazol-5-yl)amino)-5-fluoronicotinamide] |
| 10 to 50 | CC(C)C[C@@H](Nc1nc(Nc2cnc(N3CCOCC3)c(F)c2)c(C(N)=O)cc1F)[C@H](C)N [Example 2-237, 6-(((2S,3R)-2-amino-5-methylhexan-3-yl)amino)-5-fluoro-2-((5-fluoro-6-morpholinopyridin-3-yl)amino)nicotinamide] |
| 10 to 50 | CCn1ncc2cc(Nc3nc(N[C@H](C(C)C)[C@H](C)N)c(F)cc3C(N)=O)ccc21 [Example 2-105, 6-(((2S,3R)-2-amino-4-methylpentan-3-yl)amino)-2-((1-ethyl-1H-indazol-5-yl)amino)-5-fluoronicotinamide] |
| < 10 | C[C@H](N)[C@H](Nc1nc(Nc2cnc(N3CCOCC3)c(F)c2)c(C(N)=O)cc1F)c1ccccc1 [Example 2-314, 6-(((1R,2S)-2-amino-1-phenylpropyl)amino)-5-fluoro-2-((5-fluoro-6-morpholinopyridin-3-yl)amino)nicotinamide] |
| 50 to 100 | Cc1ncc(Nc2nc(N[C@@H](CN)Cc3ccccc3)c(F)cc2C(N)=O)cc1-n1nccn1 [Example 2-364, (R)-6-((1-amino-3-phenylpropan-2-yl)amino)-5-fluoro-2-((6-methyl-5-(2H-1,2,3-triazol-2-yl)pyridin-3-yl)amino)nicotinamide] |
| < 10 | C[C@H](N)[C@H](Nc1nc(Nc2ccc3c(c2)c(N(C)C)nn3C)c(C(N)=O)cc1F)c1ccc(F)c(F)c1 [Example 2-553, 6-(((1R,2S)-2-amino-1-(3,4-difluorophenyl)propyl)amino)-2-((3-(dimethylamino)-1-methyl-1H-indazol-5-yl)amino)-5-fluoronicotinamide] |
| 10 to 50 | CC[C@@H](Nc1nc(Nc2cnc(NC)c(F)c2)c(C(N)=O)cc1F)[C@H](C)N [Example 2-276, 6-(((2S,3R)-2-aminopentan-3-yl)amino)-5-fluoro-2-((5-fluoro-6-(methylamino)pyridin-3-yl)amino)nicotinamide] |
| < 10 | C[C@H](N)[C@H](Nc1nc(Nc2ccc3c(c2)c(N(C)C)nn3C)c(C(N)=O)cc1F)c1cccc(F)c1 [Example 2-452, 6-(((1R,2S)-2-amino-1-(3-fluorophenyl)propyl)amino)-2-((3-(dimethylamino)-1-methyl-1H-indazol-5-yl)amino)-5-fluoronicotinamide] |
| < 10 | CC[C@@H](Nc1nc(Nc2cccc3c2cnn3CCOC)c(C(N)=O)cc1F)[C@H](C)N [Example 2-304, 6-(((2S,3R)-2-aminopentan-3-yl)amino)-5-fluoro-2-((1-(2-methoxyethyl)-1H-indazol-4-yl)amino)nicotinamide] |
| < 10 | COc1cc(Nc2nc(N[C@H](C3CCC3)[C@H](C)N)c(F)cc2C(N)=O)ccc1C [Example 2-30, 6-(((1R,2S)-2-amino-1-cyclobutylpropyl)amino)-5-Fluoro-2-((3-methoxy-4-methylphenyl)amino)nicotinamide] |
| 10 to 50 | Cc1ncc(Nc2nc(N[C@H](c3cc(F)cc(F)c3)[C@H](C)N)c(F)cc2C(N)=O)cc1-n1nccn1 [Example 2-548, 6-(((1R,2S)-2-amino-1-(3,5-difluorophenyl)propyl)amino)-5-fluoro-2-((6-methyl-5-(2H-1,2,3-triazol-2-yl)pyridin-3-yl)amino)nicotinamide] |
| < 10 | COCCn1nc(OC)c2cc(Nc3nc(N[C@H](C4CCC4)[C@H](C)N)c(F)cc3C(N)=O)ccc21 [Example 2-540] |
